# Measured values published in patent publication US20230172915A1, “DHODH INHIBITOR FOR THE TREATMENT OF COVID-19” (priority 2020, published 2023).
# Where two headings read alike, the source gives them in different places.
# Assays:
# Rift Valley fever virus = assay: microbe, parasite or virus in culture; format: cell-based; conditions: HeLa, read-out: EC50 Rift Valley fever virus
# PBMCs plus B cells (BT) = assay: BioMAP profiling, BT system; format: cell-based; conditions: for inhibition at 0.01 µM: 10 nM; for inhibition at 0.1 µM: 100 nM
# Method: (§1) The effect of PTC299 on cytokine production was assessed using BioMAP profiling (BioSeek, now part of Eurofins). The BioMAP system is comprised of complex co-cultures of primary peripheral blood mononuclear cells (PBMCs) with other cell types including B cells, fibroblasts, and endothelial cells allowing for the measurement of physiologically relevant biomarker readouts of the activity of a compound. Using this system, cytokine production was evaluated in the following models of primary cell disease models: • Peripheral blood mononuclear cells (PBMCs) plus venular endothelial cells (sAg) • PBMCs plus B cells (BT) • PBMCs plus fibroblasts (HDFSAg) • TH2 cells plus venular endothelial cells (/TH2).
# (§2) Abbreviations in Table 4: BCR, B-cell receptor; BT System, co-culture of CD19+ B cells and PBMC that utilizes BCR stimulation and sub-mitogenic TCR stimulation; HDFSAg system, co-culture of human primary dermal fibroblasts and PBMC that is stimulated with sub-mitogenic TCR levels; IL, interleukin; PBMC, Peripheral Blood Mononuclear Cell; SAg system, co-culture of endothelial cells and PBMC stimulated with mitogenic levels of TCR ligands; TCR, T-cell receptor; /TH2 system, co-culture of endothelial cells and Th2 blasts stimulated with TCR ligands and cytokines; Th2, T helper type 2; VEGF, vascular endothelial growth factor.
# [1] = system: PBMCs plus fibroblasts (HDFSAg); assay: BioMAP profiling, HDFSAg system; format: cell-based; conditions: Homo sapiens
# Method: as §1, §2
# [2] = Phase 1 multiple dose study PTC299-ONC-002-HV in healthy volunteers (PK, safety); format: in vivo, human; conditions: for AUC: read-out: AUCO-4
# Method: The PK of the 200 mg BID dosed for 7 days and 50 mg for 7 days was evaluated in a phase 1, escalating, multiple dose, safety, tolerability, and PK study, PTC299-ONC-002-HV (N=32; n=24 received PTC299 and 8 received placebo).
# Study PTC299-ONC-002-HV had 2 stages; in Stage 1, doses ranged from 0.3 to 1.2 mg/kg BID, and in Stage 2, a 1.6 mg/kg TID dose was administered. Patients received the capsule formulation of PTC299 for 7 days in both stages. Dose of 200 mg tablet is approximately 1.2 mg/kg capsule whereas 50 mg tablet is approximately 0.3 mg/kg of capsule formulation.
# DHODH = assay: Rhesus monkey single oral dose PD (plasma DHO); format: in vivo, Rhesus monkeys; conditions: after single oral 10 mg/kg dose of PTC299, Rhesus monkey
# Method: FIG. 10 is a plot of PTC299 plasma concentration (µg/mL) vs hours of plasma dihydroorotate (DHO) and PTC299 concentrations after a single dose of PTC299 was administered to a single monkey.
# The dosing regimen used in the current study was also supported by experiments performed in Rhesus monkeys. Monkeys were given a single oral 10 mg/kg dose of PTC299. The DHO plasma level increased after dosing, peaked at 24 hours and then decreased, as illustrated in FIG. 10. […] The AUC for PTC299 is consistent with that observed in the healthy volunteer study PTC299-ONC-002-HV indicating this exposure would result in inhibition of DHODH and supports the use of the 200 mg BID dosing regimen in the current study.
# [3] = Relative bioavailability tablet versus capsule; conditions: in vivo, oral; administered with food; read-out: relative bioavailability of tablet formulation compared with the capsule
# Method: The rationale for this dosing is based on the following: • The dosing regimen utilizes results from PTC’s extensive clinical, safety, and clinical pharmacology experience with the capsule formulation of PTC299 that was used in prior solid tumor clinical studies. • The tablet formulation has approximately 40% relative bioavailability compared with the capsule when administered with food. • The 200 mg BID dosing for 7 days have been tested previously in healthy volunteers in study PTC299-ONC-002-HV with no serious adverse events. […] The dosing of 200 mg BID for the first 7 days will raise the exposure of the drug quickly to accommodate the need for rapid onset of PTC299 activity..
# SARS-CoV-2 [4] = assay: SARS-CoV-2 titer in Vero cells, TCID50 assay; format: cell-based
# SARS-CoV-2 [5] = assay: SARS-CoV-2 infected Vero cells, N-protein antibody and DAPI staining; conditions: 30 nM, 300 nM
# [6] = read-out: % Inhibition s-IL-17F
# [7] = human, plasma, oral, 0.3 mg/kg, 0.3 mg/kg BID, Day 1, capsule
# [8] = human, plasma, oral, 0.3 mg/kg, 0.3 mg/kg BID, Day 7, capsule
# [9] = human, plasma, oral, 0.6 mg/kg, 0.6 mg/kg BID, Day 1, capsule
# [10] = human, plasma, oral, 0.6 mg/kg, 0.6 mg/kg BID, Day 7, capsule
# [11] = human, plasma, oral, 1.2 mg/kg, 1.2 mg/kg BID, Day 1, capsule
# [12] = human, plasma, oral, 1.2 mg/kg, 1.2 mg/kg BID, Day 7, capsule
# [13] = human, plasma, oral, 1.6 mg/kg, 1.6 mg/kg TID, Day 1, capsule
# [14] = human, plasma, oral, 1.6 mg/kg, 1.6 mg/kg TID, Day 7, capsule
# [15] = Severe acute respiratory syndrome coronavirus 2, Vero cells, extended dose response 0.003-1000 nM
compound,measurement,setting,value
"COc1ccc([C@H]2c3[nH]c4ccc(Cl)cc4c3CCN2C(=O)Oc2ccc(Cl)cc2)cc1 [PTC299, 4-chlorophenyl (S)-6-chloro-1-(4-methoxyphenyl)-1,3,4,9-tetrahydro-2H-pyrido[3,4-b]indole-2-carboxylate]",EC50,Rift Valley fever virus,13 nM
same,inhibition at 0.01 µM,PBMCs plus B cells (BT); read-out: % Inhibition s-IL-6,53%
same,inhibition at 0.01 µM,PBMCs plus B cells (BT); [6],58%
same,inhibition at 0.01 µM,PBMCs plus B cells (BT); read-out: % Inhibition sIL-17A,68%
same,inhibition at 0.01 µM,PBMCs plus B cells (BT); read-out: % Inhibition sIgG,97%
same,inhibition at 0.01 µM,PBMCs plus B cells (BT); read-out: % Inhibition sTNFa,49%
same,inhibition at 0.1 µM,PBMCs plus B cells (BT); read-out: % Inhibition s-IL-6,72%
same,inhibition at 0.1 µM,PBMCs plus B cells (BT); [6],74%
same,inhibition at 0.1 µM,PBMCs plus B cells (BT); read-out: % Inhibition sIL-17A,83%
same,inhibition at 0.1 µM,PBMCs plus B cells (BT); read-out: % Inhibition sIgG,98%
same,inhibition at 0.1 µM,PBMCs plus B cells (BT); read-out: % Inhibition sTNFa,66%
same,inhibition at 0.1 µM,"PBMCs plus B cells (BT); B-cell, read-out: % Inhibition B cell proliferation",31%
same,inhibition at 0.001 µM,[1]; read-out: % Inhibition sVEGF,90%
same,inhibition at 0.01 µM,[1]; read-out: % Inhibition sVEGF,84%
same,inhibition at 0.1 µM,[1]; read-out: % Inhibition sVEGF,60%
same,inhibition at 0.001 µM,"[1]; HDFSAg, 1 nM, read-out: % Inhibition sIL-6",33%
same,inhibition at 0.001 µM,"[1]; HDFSAg, 1 nM, read-out: % Inhibition sIL-17F",46%
same,inhibition at 0.01 µM,"[1]; HDFSAg, 10 nM, read-out: % Inhibition IL-8",25%
same,inhibition at 0.01 µM,"[1]; HDFSAg, 10 nM, read-out: % Inhibition sIL-2",47%
same,inhibition at 0.01 µM,"[1]; HDFSAg, 10 nM, read-out: % Inhibition sIL-6",91%
same,inhibition at 0.01 µM,"[1]; HDFSAg, 10 nM, read-out: % Inhibition sIL-10",73%
same,inhibition at 0.01 µM,"[1]; HDFSAg, 10 nM, read-out: % Inhibition sIL-17A",57%
same,inhibition at 0.01 µM,"[1]; HDFSAg, 10 nM, read-out: % Inhibition sIL-17F",86%
same,inhibition at 0.1 µM,"[1]; HDFSAg, 100 nM, read-out: % Inhibition IL-8",44%
same,inhibition at 0.1 µM,"[1]; HDFSAg, 100 nM, read-out: % Inhibition MCP-1",33%
same,inhibition at 0.1 µM,"[1]; HDFSAg, 100 nM, read-out: % Inhibition MMP-1",23%
same,inhibition at 0.1 µM,"[1]; HDFSAg, 100 nM, read-out: % Inhibition sIL-2",68%
same,inhibition at 0.1 µM,"[1]; HDFSAg, 100 nM, read-out: % Inhibition sIL-6",96%
same,inhibition at 0.1 µM,"[1]; HDFSAg, 100 nM, read-out: % Inhibition sIL-10",81%
same,inhibition at 0.1 µM,"[1]; HDFSAg, 100 nM, read-out: % Inhibition sIL-17A",74%
same,inhibition at 0.1 µM,"[1]; HDFSAg, 100 nM, read-out: % Inhibition sIL-17F",83%
same,inhibition at 0.1 µM,"[1]; HDFSAg, 100 nM, read-out: % Inhibition sTNFa",35%
same,Tl/2,"[2]; 0.3 mg/kg BID, Day 7, capsule",164 h
same,Tmax,"[2]; 0.6 mg/kg BID, Day 1, capsule",3.0 h
same,Tl/2,"[2]; 0.6 mg/kg BID, Day 7, capsule",210 h
same,Tl/2,"[2]; 1.2 mg/kg BID, Day 7, capsule",228 h
same,Tl/2,"[2]; 1.6 mg/kg TID, Day 7, capsule",225 h
same,SAEs during study PTC299-ONC-002-HV,"[2]; healthy volunteers, 7 days, 0.3 to 1.2 mg/kg BID and 1.6 mg/kg TID",no SAEs occurred
same,Cmax,[2]; [7],280 ng/mL
same,AUC,[2]; [7],4310 ng·h/mL
same,Tmax,"[2]; human, plasma, oral, 0.3 mg/kg, 0.3 mg/kg BID, Day 1, capsule, read-out: Tmax",4 h
same,Cmax,[2]; [8],510 ng/mL
same,AUC,[2]; [8],8440 ng·h/mL
same,Tmax,"[2]; human, plasma, oral, 0.3 mg/kg, 0.3 mg/kg BID, Day 7, capsule, read-out: Tmax",3.5 h
same,Cmax,[2]; [9],710 ng/mL
same,AUC,[2]; [9],10100 ng·h/mL
same,Cmax,[2]; [10],1110 ng/mL
same,AUC,[2]; [10],18600 ng·h/mL
same,Tmax,"[2]; human, plasma, oral, 0.6 mg/kg, 0.6 mg/kg BID, Day 7, capsule, read-out: Tmax",4 h
same,Cmax,[2]; [11],1140 ng/mL
same,AUC,[2]; [11],18000 ng·h/mL
same,Tmax,"[2]; human, plasma, oral, 1.2 mg/kg, 1.2 mg/kg BID, Day 1, capsule, read-out: Tmax",3.5 h
same,Cmax,[2]; [12],2110 ng/mL
same,AUC,[2]; [12],~32900 ng·h/mL
same,Tmax,"[2]; human, plasma, oral, 1.2 mg/kg, 1.2 mg/kg BID, Day 7, capsule, read-out: Tmax",4 h
same,Cmax,[2]; [13],1670 ng/mL
same,AUC,[2]; [13],37100 ng·h/mL
same,Cmax,[2]; [14],3530 ng/mL
same,AUC,[2]; [14],78600 ng·h/mL
same,AUC of plasma DHO,DHODH,71.4 µg·h/mL
same,bioavailability,[3],~40%
same,drop in titer versus untreated cells,"SARS-CoV-2 [4]; Example 11, 1, 0.5, or 0.25 µM, 24 hours post infection",three log drop in titer
same,EC50,SARS-CoV-2 [4]; [15],2.6 nM
same,EC90,SARS-CoV-2 [4]; [15],53 nM
same,viral replication,SARS-CoV-2 [4]; cells preincubated for 18 hours,inhibited viral replication
same,effect of excess uridine on inhibition of SARS-CoV-2 replication,SARS-CoV-2 [4]; excess uridine (100 uM),overcame inhibition of SARS-CoV-2 replication
same,reduction of viral replication,"SARS-CoV-2 [4]; pre-incubation 2 hours with 250, 500, and 1000 nM, after 24 hours, all dose levels",about 3 orders of magnitude
same,viability of the cells (DAPI stain),SARS-CoV-2 [5]; 3 µM,not cytotoxic
same,viral levels by N-protein antibody staining,SARS-CoV-2 [5]; 3 µM versus untreated controls,Increasing the PTC299 concentration led to greater reductions
